Data published in US8562974B2, “Method for expanding Cd4+ Cd25+ T regulator cells” (Fondazione Telethon, priority 2005, dated 2013).

How the values were obtained:
FOXP3 mRNA = assay: FOXP3 quantitative PCR; conditions: CD4+ T cells exposed to rapamycin
Description: Total RNA was extracted with Eurozol (Euroclone, Switzerland), and cDNA was synthesized with High Capacity cDNA Archive Kit (Applied Biosystems, New Jersey, USA). Levels of FOXP3 mRNA was quantified using Assay on Demand real-time PCR kits (Applied Biosystems, New Jersey, USA) with TaqMan Universal PCR Master Mix (Applied Biosystems, New Jersey, USA). Levels of 18s rRNA was quantified as internal control by using TaqMan PDAR Eukaryotic 18s Endogenus Controls (Applied Biosystems, assay ID: Mm00475156m1). Samples were run in duplicate, and relative expression of FOXP3 was determined by normalizing to 18 s expression in each set of samples in order to calculate a fold-change in value.
To address this question, CD4^+ T cells depleted of the CD25^+ Tr cells were cultured for three weeks in the presence or absence of rapamycin. […] The cultured cells were added in equal number to naïve KJ1-26^+CFSE^+ cells (10^5:10^5) and proliferation was monitored by CFSE dilution. […] Relative levels of mRNA FOXP3 were determined by real time quantitative RT-PCR in CD4^+ (left panel) or CD4^+CD25^− (right panel) T cells repetitively activated in vitro with or without rapamycin. The amounts of FOXP3 mRNA are expressed as relative to that in splenocytes depleted of CD4^+CD25^+ T cells (which was given an arbitrary value of 1). […]

DO11.10 tg CD4^+ T cells [1] = assay: Cell size by FACS (FSC vs SSC) after 3 rounds of stimulation; format: cell-based, mice; conditions: 3 weeks activation with rapamycin, one week rest with IL-2 50 U/ml
Protocol: After 3 rounds of stimulation with APC+OVA (medium) or APC+OVA+rapamycin (rapamycin), DO11.10 tg CD4^+ T cells were left resting for one additional week with no further stimulation in the presence of IL-2 (50 U/ml). At the end of the seven days cell size was analyzed by FACS by plotting FSC vs SSC parameters. Small (continuous line) and big (dotted line) cells are circled. Naïve CD4^+ T cells from a DO11.10 tg mouse were used as control.

DO11.10 tg CD4^+ T cells [2] = assay: Activation induced cell death (AICD) by annexin V binding, FACS; format: cell-based, mice; conditions: APC+OVA, 100 nM rapamycin, 24 and 72 hours, vs control cells
Protocol: (§1) 1×10^6 CD4^+ T cells isolated from spleen of DO11.10 tg mice were stimulated with 4×10^6 APC from Balb/c mice (i.e. total splenocytes irradiated 3000 Rad) and 0.6 μM OVA323-339peptide (OVA) (Primm, Milano, Italy). Three rounds of stimulation of 7 days each were performed. IL-2 (BD Biosciences) was added starting from the second round of stimulation at 50 U/ml. Alternatively, 1×10^6 CD4^+ T cells isolated from spleen of Balb/c mice were stimulated with coated 10 μg/ml of αCD3 and soluble 1 μg/ml of αCD28 mAbs (BD Biosciences). Cells were cultured in the presence of medium alone or 100 nM rapamycin (Sigma, St Louis, Mo.). Three rounds of stimulation of 7 days each were performed. IL-2 (BD Biosciences) was added starting from the second round of stimulation at 50 U/ml. In separate experiments, sorted CD4^+CD25^+ T cells isolated from spleen of Balb/c mice were stimulated with coated 10 μg/ml of αCD3, soluble 1 μg/ml of αCD28 mAbs (BD Biosciences) and 1000 U/ml of IL-2. Cells were cultured in the presence of medium alone or 100 nM rapamycin (Sigma, St Louis, Mo.). 1000 U/ml of IL-2 was added at the beginning of each new stimulation.
In more detail, DO11.10 tg CD4^+ T cells were cultured with APC+OVA (medium) or APC+OVA+rapamycin (rapamycin) and AICD was monitored by FACs after 24 and 72 hours of culture. Percentage of PI^+-annexinV^+ cells is indicated in each dot plot.

DO11.10 tg CD4^+ T cells [3] = assay: Fold expansion of T cells over three rounds of APC+OVA stimulation, direct cell counts; format: cell-based, mice
Protocol: as §1
Fold expansion of T cells was determined after each round of stimulation. […] Rapamycin binds to FKBP12 and the formed complex inhibits the function of mTOR, which is involved in a broad range of physiological processes linked to the control of cell-cycle. […]

DO11.10 tg CD4^+ T cells [4] = assay: CD4+CD25bright T cell content after 3 rounds of stimulation, FACS; format: cell-based, mice
Protocol: (§2) Cells were stained with the indicated Abs (all from BD Biosciences, Mountain View, Calif.), and were analyzed with a FACScan flow cytometer equipped with CellQuest software (BD Biosciences). To obtain highly purified CD4^+CD25^+/− T cells, CD4^+ T cells were first purified from splenocytes isolated from Balb/c mice by positive selection with αCD4 mAb-coated microbeads (Miltenyi Biotec, Bergisch Gladbach, Germany). Thereafter, CD4^+ T cells were stained with Cy-coupled αCD4 and PE-coupled αCD25 mAbs (BD Biosciences) and CD4^+CD25^+ T cells were sorted by FACS-sorting on a FAC-Star (BD Biosciences).
as §1, with “Cells were cultured in the presence of medium alone or 100 nM rapamycin (Sigma, St Louis, Mo.). 1000 U/ml of IL-2 was added at the beginning of each new stimulation.” left out
After 3 rounds of stimulation with APC+OVA (medium) or APC+OVA+rapamycin (rapamycin), DO11.10 tg CD4^+ T cells were left resting for one week with no further stimulation in the presence of IL-2 (50 U/ml). After seven days cells were analyzed by FACS. […]
1×10^6 DO11.10 tg CD4^+ T cells (containing 70.000 CD4^+CD25^bright T cells) were cultured with APC+OVA (medium, white bar) or APC+OVA+rapamycin (dotted bar, rapamycin). After 3 rounds of stimulation, the total number of CD4^+CD25^brightT cells was determined by FACS.

[5] = test system: CD4^+ T cells isolated from PBMCs; assay: TCR-mediated proliferation and anergy of human CD4+ T cells, CFSE; format: cell-based
Protocol: CD4^+ T cells isolated from PBMCs of healthy subjects or T1D patients were activated with plate bound anti-CD3 (10 μg/ml) and soluble of anti-CD28 (1 μg/ml) mAbs (BD Biosciences). Cells were cultured in the presence of medium (x-vivo 10) alone or with 100 nM rapamycin (Sigma, St Louis, Mo.). Three round of stimulations of 7 days each were performed. IL-2 (BD Biosciences) was added starting from the second round of stimulation at 100 U/ml.
CD4^+ T cells were stained with CFSE either at the beginning of the culture (1st week), or at the end of one (2nd week), or three (4th week) round of stimulations. CFSE^+ CD4^+ T cells were activated in vitro in the presence of anti-CD3+anti-CD28 mAbs in the presence or absence of 100 nM rapamycin. CFSE dilution was monitored 7 days after activation.
After 3 round of stimulations with anti-CD3+anti-CD28 mAbs (T medium) or anti-CD3+anti-CD28 mAbs+rapamycin (T rapamycin), CD4^+ T cells were stained with CFSE and re-stimulated with anti-CD3+anti-CD28 mAbs in the absence of the compound and of exogenous IL-2. CFSE dilution was monitored 7 days after activation. Numbers indicate the percentage of dividing cells.

[6] = test system: Balb/c CD4^+CD25^+ T cells; assay: Culture of sorted CD4+CD25+ T cells with αCD3+αCD28+1000 U/ml IL-2: fold expansion and CD25bright content; format: cell-based, mice
Protocol: as §2
as §1, with “stimulation. […]” for “stimulation.”
Fold expansion of Balb/c CD4^+CD25^+ T cells 1, 2, and 3 weeks after culture in the presence of αCD3+αCD28+1000 U/ml IL-2 (medium, white bars) or αCD3+αCD28+1000 U/ml IL-2+rapamycin (rapamycin, dotted bars) was evaluated by direct cell counts. […] After seven days, cells were analyzed by FACS. […]

CD4^+ T cells = assay: In vitro treatment of CD4+ T cells with rapamycin: CD4+CD25+ Tr cell content; format: cell-based; conditions: in vitro treatment of CD4+ T cells (5-10% Tr cells at start)
[7] = test system: CD4^+CD25^− and CD4^+CD25^+ T cells; assay: Proliferation of sorted CD4+CD25- and CD4+CD25+ T cells with anti-CD3+anti-CD28+IL-2, CFSE; format: cell-based, human; conditions: 100 nM rapamycin, 7 days
Protocol: CD4^+CD25^− and CD4^+CD25^bright T cells were FACS sorted. Subsequently, sorted CD4^+CD25^− T cells were stained with CSFE and sorted CD4^+CD25^+ T cells were added back to the same amount present in unsorted CD4^+ T cells (5%) (FIG. 13, left panel). Alternatively, sorted CD4^+CD25^+ T cells were stained with CSFE and sorted CD4^+CD25^− T cells were added back to the same amount present in unsorted CD4^+ T cells (95%) (right panel of FIG. 13). The two distinct CFSE stained cell populations were activated with anti-CD3+anti-CD28 mAbs+IL-2 in the presence or absence of 100 nM rapamycin. CFSE dilution was monitored 7 days after activation. Numbers indicate the percentage of CFSE^+ dividing cells.

DO11.10 tg CD4^+ T cells [8] = assay: Re-stimulation without compound after 3 rounds, CFSE dilution (anergy); format: cell-based, mice; conditions: after 3 rounds with rapamycin, re-stimulated with APC+OVA without rapamycin and IL-2, 5 days
Protocol: The proportion of CFSE^+ cells proliferating in vitro was calculated as described elsewhere (Lyons 1994). Briefly, the number of cells (events) in a given cycle (division: n) was divided by 2 raised to power n, to calculate the percentage of original precursor cells from which they arose. The sum of original precursors from division 1 to 6 represents the number of precursors cells which proliferated. The percent of CFSE^+ divided cells was calculated by [(# of precursors that proliferated1-6/# of total precursors0-6)×100].
In more detail in relation to FIG. 1C, after 3 rounds of stimulation with APC+OVA (medium) or APC+OVA+rapamycin (rapamycin), DO11.10 tg CD4^+T cells were stained with CFSE and re-stimulated with APC+OVA in the absence of the compound and of exogenous IL-2. CFSE dilution was monitored 5 days after activation.

NOD CD4^+ T cells = assay: Ex vivo expansion of NOD CD4+ T cells with rapamycin: regulatory markers; format: cell-based; conditions: pre-diabetic 11 week old NOD mice, three rounds of stimulation
Protocol: CD4^+ T cells were obtained by incubation of splenocytes from pre-diabetic or diabetic NOD mice with αCD4 mAb-coated microbeads and applied onto MiniMacs columns (Miltenyi Biotec). The average purity was 95%. 1×10^6 CD4^+ T cells isolated from spleen of NOD mice were stimulated with coated 10 μg/ml of αCD3 and soluble 1 μg/ml of αCD28 mAbs (BD Biosciences). Cells were cultured in the presence of medium alone or 100 nM rapamycin (Sigma, St Louis, Mo.). Three rounds of stimulation of 7 days each were performed. IL-2 (BD Biosciences) was added starting from the second round of stimulation at 100 U/ml.
In this Example, we attempted to generate ex vivo Tr cells from non obese diabetic (NOD) mice. Spontaneously autoimmune diabetes in NOD mice mainly results from quantitative and qualitative changes in autoaggressive T effector cells. Older mice indeed harbor diabetogenic T cells that are progressively less prone to Tr cells-mediated inhibition (You et al. Diabetes, 2005). We tested whether rapamycin could expand functional Tr cells from NOD mice and whether these expanded T cells have a regulatory function. CD4^+ T cells were isolated from the spleen of pre-diabetic 11 week old NOD mice and were activated in vitro with anti-CD3 and CD28 mAbs in the presence of medium or rapamycin.

`CO[C@H]1C[C@@H]2CC[C@@H](C)[C@@](O)(O2)C(=O)C(=O)N2CCCC[C@H]2C(=O)O[C@H]([C@H](C)C[C@@H]2CC[C@@H](O)[C@H](OC)C2)CC(=O)[C@H](C)/C=C(\C)[C@@H](O)[C@@H](OC)C(=O)[C@H](C)C[C@H](C)/C=C/C=C/C=C/1C` [rapamycin] was tested, and the FOXP3 expression (FOXP3 mRNA) was “enhanced”, the “cell size and shape” value (DO11.10 tg CD4^+ T cells [1]) was “smaller and displayed a more round-like shape than control cells” and the “apoptosis (AICD) upon in vitro activation” value (DO11.10 tg CD4^+ T cells [2]) was “neither increase nor reduction of apoptosis was observed”. The “kinetic of proliferation (fold expansion)” value (DO11.10 tg CD4^+ T cells [3]; APC+OVA, 100 nM rapamycin, weeks 1-3) was “delayed kinetic of proliferation compared to control cells”, the “number of T cells recovered” value (DO11.10 tg CD4^+ T cells [3]; end of the third week of culture) was “the same number of T cells was recovered in control- and rapamycin-cultures” and the “enrichment in CD4+CD25bright T cells” value (DO11.10 tg CD4^+ T cells [4]; T cells activated in the presence of rapamycin) was “highly enriched in”. The “content of CD4+CD25bright Tr cells” value (DO11.10 tg CD4^+ T cells [4]; cells exposed to rapamycin, 3 rounds APC+OVA) was “around 60%”, the “total number of CD4+CD25bright T cells recovered” value (DO11.10 tg CD4^+ T cells [4]; three weeks of culture, repetitive Ag-stimulation) was “markedly superior to that of control cultures” and the T cell anergy ([5]; after 3 rounds, re-stimulated without compound and IL-2) was “Does Not Induce T Cell Anergy”. For the same molecule, the “TCR-mediated proliferation of CD4+ T cells” value ([5]; anti-CD3+anti-CD28, 100 nM rapamycin) was “Strongly Reduces TCR-Mediated Proliferation”, the “kinetic of proliferation (fold expansion)” value ([6]; 100 nM rapamycin) was “delayed kinetic of proliferation compared to control cells” and the expansion ([6]; starting from the third week of culture) was “greatly expanded”. The “percentage of CD4+CD25bright T cells” value ([6]; three weeks, vs control cells) was “higher percentage of”, the “increase of the CD4+CD25+ Tr cell content” value (CD4^+ T cells) was 20 fold and the “TCR-mediated proliferation of CD4+CD25- vs CD4+CD25+ T cells” value [7] was “Selectively Blocks TCR-Mediated Proliferation of CD4^+CD25^− T Cells but not of CD4^+CD25^+ Tr Cells”. The “ability to proliferate on re-stimulation” value (DO11.10 tg CD4^+ T cells [8]) was “retained their ability to proliferate” and the “enrichment in CD4+CD62L+ and CD45RBlow cells” value (NOD CD4^+ T cells) was “highly enriched in”.
